For one data set, the system named is rabbit. Nature of the data set: Safety profile, acute toxicity in rabbit. The class given is in vivo.
Another data set addresses T1, cGMP-inhibited cAMP PDE (Oryctolagus cuniculus, UniProt G1ST54).
T1 construct: The PDE enzymes are isolated from rabbit platelets and rat kidney; from tissue; host or cells: rabbit platelets
T1 sequence (G1ST54 1-1128): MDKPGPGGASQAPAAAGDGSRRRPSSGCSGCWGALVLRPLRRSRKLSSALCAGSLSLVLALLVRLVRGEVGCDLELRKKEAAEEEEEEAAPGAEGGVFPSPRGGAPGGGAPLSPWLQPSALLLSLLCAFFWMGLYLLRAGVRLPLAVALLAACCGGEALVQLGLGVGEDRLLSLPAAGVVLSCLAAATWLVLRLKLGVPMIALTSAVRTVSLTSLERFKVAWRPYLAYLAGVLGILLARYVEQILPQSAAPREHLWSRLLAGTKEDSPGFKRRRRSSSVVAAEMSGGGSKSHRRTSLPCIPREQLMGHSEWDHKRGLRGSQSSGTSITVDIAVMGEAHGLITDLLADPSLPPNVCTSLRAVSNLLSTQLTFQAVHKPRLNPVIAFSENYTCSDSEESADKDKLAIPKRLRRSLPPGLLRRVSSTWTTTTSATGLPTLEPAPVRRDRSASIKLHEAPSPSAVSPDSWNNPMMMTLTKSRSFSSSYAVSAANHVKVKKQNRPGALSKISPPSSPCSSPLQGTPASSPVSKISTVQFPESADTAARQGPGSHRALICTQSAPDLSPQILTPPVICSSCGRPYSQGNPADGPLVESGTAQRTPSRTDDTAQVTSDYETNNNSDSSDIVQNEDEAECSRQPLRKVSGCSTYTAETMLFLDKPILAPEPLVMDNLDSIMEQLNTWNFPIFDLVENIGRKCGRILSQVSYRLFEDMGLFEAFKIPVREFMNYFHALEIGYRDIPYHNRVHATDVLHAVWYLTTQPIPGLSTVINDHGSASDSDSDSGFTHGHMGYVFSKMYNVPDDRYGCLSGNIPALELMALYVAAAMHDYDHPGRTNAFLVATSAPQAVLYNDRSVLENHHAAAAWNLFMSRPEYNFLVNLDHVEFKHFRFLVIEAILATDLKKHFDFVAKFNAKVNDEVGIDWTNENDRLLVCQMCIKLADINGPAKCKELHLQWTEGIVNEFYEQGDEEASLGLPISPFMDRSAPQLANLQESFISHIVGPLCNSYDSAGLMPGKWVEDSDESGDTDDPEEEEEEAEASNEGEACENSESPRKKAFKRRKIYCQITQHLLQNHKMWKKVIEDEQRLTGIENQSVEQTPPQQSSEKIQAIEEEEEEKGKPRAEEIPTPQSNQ
The data set is described as follows: In vitro inhibition of cGMP-inhibited cAMP PDE. The class given is biochemical. The settings on record: cGMP-inhibited cAMP PDE from rabbit platelets. As for the experimental part: (§1) Phosphodiesterase activity
(§2) Compound affinities for cGMP and cAMP PDEs are assessed by determination of their IC50 values (the concentration of inhibitor required for 50% inhibition of enzyme activity). The PDE enzymes are isolated from rabbit platelets and rat kidney, essentially by the method of W. J. Thompson et al. (Biochem., 1971, 10, 311). The calcium/calmodulin (Ca/CAM)-independentcGMP PDE and the cGMP-inhibited cAMP PDE enzymes are obtained from rabbit platelets whilst, of the four major PDE enzymes of the rat kidney, the Ca/CAM-dependent cGMP PDE (fraction I) is isolated. Assays are performed using a modification of the "batch" method of W. J. Thompson and M. M. Appleman (Biochem., 1979, 18, 5228).

For data set [1], the system named is calcium/calmodulin (Ca/CAM)-independent cGMP PDE. Nature of the data set: In vitro inhibition of Ca/CAM-independent cGMP PDE. The settings on record: between Ca/CAM-independent cGMP PDE and cGMP-inhibited cAMP PDE (IC50 cAMP / IC50 cGMP). The class given is biochemical, rabbit. On the procedure: as §1, §2
For data set [2], the target named is T2, calcium/calmodulin (Ca/CAM)-independent cGMP PDE (Oryctolagus cuniculus, UniProt G1SX67).
T2 construct: The PDE enzymes are isolated from rabbit platelets and rat kidney; from tissue; host or cells: rabbit platelets
The data set is described as follows: In vitro inhibition of Ca/CAM-independent cGMP PDE. The class given is biochemical, rabbit. The settings on record: Ca/CAM-independent cGMP PDE from rabbit platelets, in vitro. As for the experimental part:
as §1, §2

Consider `CCOc1ccc(S(=O)(=O)N2CCN(CCO)CC2)cc1-c1nc2cccc(C)c2c(=O)[nH]1` [Example 4, 2-{2-Ethoxy-5-[4-(2-hydroxyethyl)-1-piperazinylsulphonyl]phenyl}-5-methylquinazolin-4(3H)-one], for which, in the data set on rabbit (doses of up to 10 mg/kg i.d.), the “signs of adverse acute toxicity” value is “no signs of adverse acute toxicity being observed”.

`CCOc1ccc(S(=O)(=O)N2CCN(CCO)CC2)cc1-c1nc2c(C)cccc2c(=O)[nH]1` [Example 5, 2-{2-Ethoxy-5-[4-(2-hydroxyethyl)-1-piperazinylsulphonyl]phenyl}-8-methylquinazolin-4(3H)-one]: the IC50 (as a rule, the concentration that gives 50% inhibition) on cGMP-inhibited cAMP PDE is over 100000 nM; in data set [2], 37 nM. The “signs of adverse acute toxicity” value in the data set on rabbit (doses of up to 10 mg/kg i.d.) was “no signs of adverse acute toxicity being observed”. Moreover, the “SELECTIVITY RATIO” value in data set [1] is given as > 2,702.

On to `CCCOc1ccc(S(=O)(=O)N2CCN(CCO)CC2)cc1-c1nc2c(C)cccc2c(=O)[nH]1` [Example 6], for which the IC50 at cGMP-inhibited cAMP PDE is over 100000 nM; in data set [2], 6.5 nM. The “SELECTIVITY RATIO” value in data set [1] is listed as > 15,384.

In the case of `CCCOc1ccc(C=CC(=O)N2CCN(C)CC2)cc1-c1nc2c(C)cccc2c(=O)[nH]1` [Example 9], the half-inhibitory concentration (IC50) was over 100000 nM on cGMP-inhibited cAMP PDE and 37 nM in data set [2]. In the data set with rabbit (doses of up to 1 mg/kg i.d.), the “signs of adverse acute toxicity” value is reported as “no signs of adverse acute toxicity being observed”. Moreover, in data set [1], the “SELECTIVITY RATIO” value is on record as > 2,702.

On to `CCCOc1ccc(C=CC(=O)OC(C)(C)C)cc1-c1nc2c(C)cccc2c(=O)[nH]1` [Example 10, t-Butyl 3-(8-methylquinazolin-4(3H)-on-2-yl)-4-n-propoxycinnamate], for which the values for the IC50 (against cGMP-inhibited cAMP PDE; in data set [2]) were over 100000 nM and 54 nM, respectively. Moreover, the “SELECTIVITY RATIO” value in data set [1] is recorded as > 1,851.

For the compound `CCOc1ccc(C(O)CN2CCOCC2)cc1-c1nc2c(C)cccc2c(=O)[nH]1` (centres unmarked) [Example 17, 2-[2-Ethoxy-5-(1-hydroxy-2-morpholinoethyl)phenyl]-8-methylquinazolin-4(3H)-one], the IC50 against cGMP-inhibited cAMP PDE was over 100000 nM; in data set [2] it was 53 nM. Also, the “SELECTIVITY RATIO” value in data set [1] is given as > 1,886.

For `CCOc1ccc(S(=O)(=O)N2CCN(CCO)CC2)cc1-c1nc2c(C(N)=O)cccc2c(=O)[nH]1` [Example 19, 8-Carbamoy-2-{2-ethoxy-5-[4-(2-hydroxyethyl)-1-piperazinylsulphonyl]phenyl}quinazolin-4(3H)-one], the IC50 at cGMP-inhibited cAMP PDE was determined as 67000 nM; in data set [2] it was 34 nM. Moreover, in data set [1], the “SELECTIVITY RATIO” value was 1,970.

On to `CCCOc1ccccc1-c1nc2c(C(=O)NCC)cccc2c(=O)[nH]1` [Example 21, 8-Ethylcarbamoyl-2-(2-n-propoxyphenyl)quinazolin-4(3H)-one], for which the IC50 was over 100000 nM at cGMP-inhibited cAMP PDE and 14 nM in data set [2]. In addition, in data set [1], the “SELECTIVITY RATIO” value was > 7,142.

`CCCOc1ccc(C(C)=O)cc1-c1nc2c(C)cccc2c(=O)[nH]1` [Example 22, 2-(5-Acetyl-2-n-propoxyphenyl)-8-methylquinazolin-4(3H)-one]: the figures for the IC50 (against cGMP-inhibited cAMP PDE; in data set [2]) were over 100000 nM and 49 nM, respectively.
